The structures appear in SMILES notation.

This assay addresses T1, human TPH1 (Homo sapiens, UniProt P17752).
T1 sequence (P17752 1-444): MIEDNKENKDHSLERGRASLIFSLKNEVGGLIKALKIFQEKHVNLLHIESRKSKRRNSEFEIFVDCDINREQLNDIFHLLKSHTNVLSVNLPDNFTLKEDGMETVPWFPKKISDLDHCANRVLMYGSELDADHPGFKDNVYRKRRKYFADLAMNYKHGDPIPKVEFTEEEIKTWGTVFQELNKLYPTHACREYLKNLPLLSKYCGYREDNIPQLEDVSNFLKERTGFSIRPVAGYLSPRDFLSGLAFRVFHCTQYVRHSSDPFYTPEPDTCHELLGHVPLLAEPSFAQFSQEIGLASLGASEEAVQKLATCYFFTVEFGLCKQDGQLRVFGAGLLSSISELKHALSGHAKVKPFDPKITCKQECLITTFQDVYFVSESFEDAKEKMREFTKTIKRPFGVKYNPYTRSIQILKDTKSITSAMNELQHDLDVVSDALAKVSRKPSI
Kind of assay: biochemical. Summed up: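 Inhibition is derived from 5-hydroxy-L-tryptophan fluorescence (540 nm emission, 300 nm excitation) after perchloric acid stop, relative to DMSO vehicle. Recombinant full-length human enzyme (40-80 nM) reacts with 40 μM tryptophan plus 100 μM methyltetrahydropterin, pH 7.6 Tris/DTT/catalase, 15° C, 60 min.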
The compound `COc1cc(C2c3c(nc4cc(C(F)(F)F)ccn34)CCN2C(=O)COc2ccc3ccccc3c2)ccc1O` (centres unmarked) [Example 3.11.1, 1-(1-(4-hydroxy-3-methoxyphenyl)-7-(trifluoromethyl)-3,4-dihydroimidazo[1,2-a:5,4-c′]dipyridin-2(1H)-yl)-2-(naphthalen-2-yloxy)ethan-1-one] came in with an IC50 of 318 nM.
In turn, `COc1ccc(C2c3c(nc4cc(C(F)(F)F)ccn34)CCN2C(=O)COc2ccc3ccccc3c2)cc1OC(F)F` (centres unmarked) [Example 3.12.1, 1-(1-(3-(difluoromethoxy)-4-methoxyphenyl)-7-(trifluoromethyl)-3,4-dihydroimidazo[1,2-a:5,4-c′]dipyridin-2(1H)-yl)-2-(naphthalen-2-yloxy)ethan-1-one] yielded an IC50 of 41 nM.
In the case of `COc1ccc(C2c3c(nc4cc(C(F)(F)F)ccn34)CCN2C(=O)COc2ccc3ccccc3c2)cc1OC(F)(F)F` (centres unmarked) [Example 3.13.1, 1-(1-(4-methoxy-3-(trifluoromethoxy)phenyl)-7-(trifluoromethyl)-3,4-dihydroimidazo[1,2-a:5,4-c′]dipyridin-2(1H)-yl)-2-(naphthalen-2-yloxy)ethan-1-one] it was 75 nM; in that of `COc1cc(C2c3c(nc4cc(C(F)(F)F)ccn34)CCN2C(=O)COc2ccc3ccccc3c2)ccc1OC(F)F` (centres unmarked) [Example 3.14.1, 1-(1-(4-(difluoromethoxy)-3-methoxyphenyl)-7-(trifluoromethyl)-3,4-dihydroimidazo[1,2-a:5,4-c′]dipyridin-2(1H)-yl)-2-(naphthalen-2-yloxy)ethan-1-one], 106 nM; in that of `COc1cc(C2c3c(nc4cc(C(F)(F)F)ccn34)CCN2C(=O)COc2ccc3ccccc3c2)ccc1OCCN(C)C` (centres unmarked) [Example 3.15.1, 1-(1-(4-(2-(dimethylamino)ethoxy)-3-methoxyphenyl)-7-(trifluoromethyl)-3,4-dihydroimidazo[1,2-a:5,4-c′]dipyridin-2(1H)-yl)-2-(naphthalen-2-yloxy)ethan-1-one], 70 nM.
As for `O=C(COc1ccc2ccccc2c1)N1CCc2nc3cc(C(F)(F)F)ccn3c2C1c1ccc2c(c1)OCO2` (centres unmarked) [Example 3.16.1, 1-(1-(benzo[d][1,3]dioxol-5-yl)-7-(trifluoromethyl)-3,4-dihydroimidazo[1,2-a:5,4-c′]dipyridin-2(1H)-yl)-2-(naphthalen-2-yloxy)ethan-1-one], the IC50 is 150 nM. This IC50 lies about 2.1-fold higher than the previous one.
With `O=C(COc1ccc2ccccc2c1)N1CCc2nc3cc(C(F)(F)F)ccn3c2C1c1ccc2c(c1)OCCO2` (centres unmarked) [Example 3.17.1, 1-(1-(2,3-dihydrobenzo[b][1,4]dioxin-6-yl)-7-(trifluoromethyl)-3,4-dihydroimidazo[1,2-a:5,4-c′]dipyridin-2(1H)-yl)-2-(naphthalen-2-yloxy)ethan-1-one] the figure was 138 nM; with `COc1cc(F)c(C2c3c(nc4cc(C(F)(F)F)ccn34)CCN2C(=O)COc2ccc3ccccc3c2)cc1OC` (centres unmarked) [Example 3.18.1, 1-(1-(2-fluoro-4,5-dimethoxyphenyl)-7-(trifluoromethyl)-3,4-dihydroimidazo[1,2-a:5,4-c′]dipyridin-2(1H)-yl)-2-(naphthalen-2-yloxy)ethan-1-one], 5 nM; with `COc1cc(F)c(C2c3c(nc4cc(C(F)(F)F)ccn34)CCN2C(=O)COc2ccc(CN3CCOCC3)cc2Cl)cc1OC` (centres unmarked) [Example 3.18.2, 2-(2-chloro-4-(morpholinomethyl)phenoxy)-1-(1-(2-fluoro-4,5-dimethoxyphenyl)-7-(trifluoromethyl)-3,4-dihydroimidazo[1,2-a:5,4-c′]dipyridin-2(1H)-yl)ethan-1-one], 5 nM.
`COc1cc(F)c(C2c3c(nc4cc(C(F)(F)F)ccn34)CCN2C(=O)COc2ccc3c(c2)CN(C(=O)OC(C)(C)C)CC3)cc1OC` (centres unmarked) [Example 3.18.3, tert-butyl 7-(2-(1-(2-fluoro-4,5-dimethoxyphenyl)-7-(trifluoromethyl)-3,4-dihydroimidazo[1,2-a:5,4-c′]dipyridin-2(1H)-yl)-2-oxoethoxy)-3,4-dihydroisoquinoline-2(1H)-carboxylate] registered an IC50 of 9 nM. Compared with the last compound, the IC50 is about 1.8-fold higher.
For `COc1cc(F)c(C2c3c(nc4cc(C(F)(F)F)ccn34)CCN2C(=O)COc2ccc3c(c2)CNCC3)cc1OC` (centres unmarked) [Example 3.18.4, 1-(1-(2-fluoro-4,5-dimethoxyphenyl)-7-(trifluoromethyl)-3,4-dihydroimidazo[1,2-a:5,4-c′]dipyridin-2(1H)-yl)-2-((1,2,3,4-tetrahydroisoquinolin-7-yl)oxy)ethan-1-one], the IC50 was 72 nM. This IC50 lies about 8-fold higher than the previous one.
In the case of `COc1cc(F)c(C2c3c(nc4cc(C(F)(F)F)ccn34)CCN2C(=O)COc2ccc3c(c2)CN(C)CC3)cc1OC` (centres unmarked) [Example 3.18.5, 1-(1-(2-fluoro-4,5-dimethoxyphenyl)-7-(trifluoromethyl)-3,4-dihydroimidazo[1,2-a:5,4-c′]dipyridin-2(1H)-yl)-2-((2-methyl-1,2,3,4-tetrahydroisoquinolin-7-yl)oxy)ethan-1-one] it was 13 nM.
In the case of `COc1cc(F)c(C2c3c(nc4cc(C(F)(F)F)ccn34)CCN2C(=O)COc2ccc3c(c2)CN(C(C)=O)CC3)cc1OC` (centres unmarked) [Example 3.18.6, 2-((2-acetyl-1,2,3,4-tetrahydroisoquinolin-7-yl)oxy)-1-(1-(2-fluoro-4,5-dimethoxyphenyl)-7-(trifluoromethyl)-3,4-dihydroimidazo[1,2-a:5,4-c′]dipyridin-2(1H)-yl)ethan-1-one] it was 6 nM; in that of `COc1cc(F)c(C2c3c(nc4cc(C(F)(F)F)ccn34)CCN2C(=O)COc2ccc3c(c2)CN(C(=O)CO)CC3)cc1OC` (centres unmarked) [Example 3.18.7, 1-(1-(2-fluoro-4,5-dimethoxyphenyl)-7-(trifluoromethyl)-3,4-dihydroimidazo[1,2-a:5,4-c′]dipyridin-2(1H)-yl)-2-((2-(2-hydroxyacetyl)-1,2,3,4-tetrahydroisoquinolin-7-yl)oxy)ethan-1-one], 4 nM; in that of `COc1cc(F)c(C2c3c(nc4cc(C(F)(F)F)ccn34)CCN2C(=O)COc2ccc(C3(N[S+]([O-])C(C)(C)C)COC3)cc2Cl)cc1OC` (centres unmarked) [Example 3.18.8, N-(3-(3-chloro-4-(2-(1-(2-fluoro-4,5-dimethoxyphenyl)-7-(trifluoromethyl)-3,4-dihydroimidazo[1,2-a:5,4-c′]dipyridin-2(1H)-yl)-2-oxoethoxy)phenyl)oxetan-3-yl)-2-methylpropane-2-sulfinamide], 48 nM.
In turn, `COc1cc(F)c(C2c3c(nc4cc(C(F)(F)F)ccn34)CCN2C(=O)COc2ccc(C3(N)COC3)cc2Cl)cc1OC` (centres unmarked) [Example 3.18.9, 2-(4-(3-aminooxetan-3-yl)-2-chlorophenoxy)-1-(1-(2-fluoro-4,5-dimethoxyphenyl)-7-(trifluoromethyl)-3,4-dihydroimidazo[1,2-a:5,4-c′]dipyridin-2(1H)-yl)ethan-1-one] showed an IC50 of 10 nM. This IC50 lies about 4.8-fold lower than the previous one.
`COc1cc(F)c(C2c3c(nc4cc(C(F)(F)F)ccn34)CCN2C(=O)COc2ccc(C3(N4CCOCC4)COC3)cc2Cl)cc1OC` (centres unmarked) [Example 3.18.10, 2-(2-chloro-4-(3-morpholinooxetan-3-yl)phenoxy)-1-(1-(2-fluoro-4,5-dimethoxyphenyl)-7-(trifluoromethyl)-3,4-dihydroimidazo[1,2-a:5,4-c′]dipyridin-2(1H)-yl)ethan-1-one] displayed an IC50 of 25 nM.
In the case of `COc1cc(C2c3c(nc4cc(C(F)(F)F)ccn34)CCN2C(=O)COc2ccc3ccccc3c2)cnc1OC` (centres unmarked) [Example 3.19.1, 1-(1-(5,6-dimethoxypyridin-3-yl)-7-(trifluoromethyl)-3,4-dihydroimidazo[1,2-a:5,4-c′]dipyridin-2(1H)-yl)-2-(naphthalen-2-yloxy)ethan-1-one] it was 30 nM; in that of `COc1ccc(C2c3c(nc4cc(C(F)(F)F)ccn34)CCN2C(=O)COc2ccc3ccccc3c2)nc1OC` (centres unmarked) [Example 3.20.1, 1-(1-(5,6-dimethoxypyridin-2-yl)-7-(trifluoromethyl)-3,4-dihydroimidazo[1,2-a:5,4-c′]dipyridin-2(1H)-yl)-2-(naphthalen-2-yloxy)ethan-1-one], 53 nM; in that of `O=C(COc1ccc2ccccc2c1)N1CCc2nc3cc(C(F)(F)F)ccn3c2C1c1ncccc1F` (centres unmarked) [Example 3.21.1, 1-(1-(3-fluoropyridin-2-yl)-7-(trifluoromethyl)-3,4-dihydroimidazo[1,2-a:5,4-c′]dipyridin-2(1H)-yl)-2-(naphthalen-2-yloxy)ethan-1-one], 69 nM.
In the case of `O=C(COc1ccc(CN2CCOCC2)cc1Cl)N1CCc2nc3cc(C(F)(F)F)ccn3c2C1c1ncccc1F` (centres unmarked) [Example 3.21.2, 2-(2-chloro-4-(morpholinomethyl)phenoxy)-1-(1-(3-fluoropyridin-2-yl)-7-(trifluoromethyl)-3,4-dihydroimidazo[1,2-a:5,4-c′]dipyridin-2(1H)-yl)ethan-1-one], the midpoint of inhibition, the IC50, lay at 345 nM.
With `O=C(COc1ccc(N2CCOCC2)cc1Cl)N1CCc2nc3cc(C(F)(F)F)ccn3c2C1c1ncccc1F` (centres unmarked) [Example 3.21.3, 2-(2-chloro-4-morpholinophenoxy)-1-(1-(3-fluoropyridin-2-yl)-7-(trifluoromethyl)-3,4-dihydroimidazo[1,2-a:5,4-c′]dipyridin-2(1H)-yl)ethan-1-one], half-maximal inhibition (IC50) required 88 nM.
In turn, `Cc1cc(Cl)ccc1OCC(=O)N1CCc2nc3cc(C(F)(F)F)ccn3c2C1c1ncccc1F` (centres unmarked) [Example 3.21.4, 2-(4-chloro-2-methylphenoxy)-1-(1-(3-fluoropyridin-2-yl)-7-(trifluoromethyl)-3,4-dihydroimidazo[1,2-a:5,4-c′]dipyridin-2(1H)-yl)ethan-1-one] registered an IC50 of 464 nM.

(Values after patent US20180155344A1, “TRICYCLIC PIPERIDINE COMPOUNDS” (ACTELION PHARMACEUTICALS LTD, priority 2015, published 2018).)
